Values of other authors, collected in paper PMC7168327, “Designed Antimicrobial Peptides for Topical Treatment of Antibiotic Resistant Acne Vulgaris” (Antibiotics, 2020).

Tests used:
Settings in all cases: cited from earlier work
[1] = tested on: C. acnes ATCC11827
Source text: (§1) Table 1 Growth Inhibition of dAMPs (MICs, µg/mL) against C. acnes Isolates. | column: Antibiotic Sensitivity / Tetra ^#; Antibiotic Sensitivity / Ery ^#; Antibiotic Sensitivity / Clind ^#

[2] = tested on: C. acnes ATCC6919
Source text: as §1

[3] = tested on: C. acnes HL007PA1
Source text: as §1

[4] = tested on: C. acnes HL013PA1
Source text: as §1

[5] = tested on: C. acnes HL038PA1
Source text: as §1

[6] = tested on: C. acnes HL043PA1
Source text: as §1

[7] = tested on: C. acnes HL043PA2
Source text: as §1

[8] = tested on: C. acnes HL045PA1
Source text: as §1

[9] = tested on: C. acnes HL053PA1
Source text: as §1

[10] = tested on: C. acnes HL056PA1
Source text: as §1

[11] = tested on: C. acnes HL072PA1
Source text: as §1

[12] = tested on: C. acnes HL082PA2
Source text: as §1

Structure (SMILES): CC[C@H]1OC(=O)[C@H](C)[C@@H](O[C@H]2C[C@@](C)(OC)[C@@H](O)[C@H](C)O2)[C@H](C)[C@@H](O[C@@H]2O[C@H](C)C[C@H](N(C)C)[C@H]2O)[C@](C)(O)C[C@@H](C)C(=O)[C@H](C)[C@@H](O)[C@]1(C)O [Ery, erythromycin]
- Antibiotic Sensitivity, Ery [1]: S (S, sensitive)
- Antibiotic Sensitivity, Ery [2]: S (S, sensitive)
- Antibiotic Sensitivity, Ery [3]: R (erythromycin resistance MIC ≥ 0.5 μg/mL)
- Antibiotic Sensitivity, Ery [4]: R (erythromycin resistance MIC ≥ 0.5 μg/mL)
- Antibiotic Sensitivity, Ery [5]: R (erythromycin resistance MIC ≥ 0.5 μg/mL)
- Antibiotic Sensitivity, Ery [6]: R (erythromycin resistance MIC ≥ 0.5 μg/mL)
- Antibiotic Sensitivity, Ery [7]: R (erythromycin resistance MIC ≥ 0.5 μg/mL)
- Antibiotic Sensitivity, Ery [8]: R (erythromycin resistance MIC ≥ 0.5 μg/mL)
- Antibiotic Sensitivity, Ery [9]: R (erythromycin resistance MIC ≥ 0.5 μg/mL)
- Antibiotic Sensitivity, Ery [10]: R (erythromycin resistance MIC ≥ 0.5 μg/mL)
- Antibiotic Sensitivity, Ery [11]: R (erythromycin resistance MIC ≥ 0.5 μg/mL)
- Antibiotic Sensitivity, Ery [12]: R (erythromycin resistance MIC ≥ 0.5 μg/mL)

Structure (SMILES): CN(C)[C@@H]1C(O)=C(C(N)=O)C(=O)[C@@]2(O)C(O)=C3C(=O)c4c(O)cccc4[C@@](C)(O)[C@H]3C[C@@H]12 [Tetra, tetracycline]
- Antibiotic Sensitivity, Tetra [1]: S (S, sensitive)
- Antibiotic Sensitivity, Tetra [2]: S (S, sensitive)
- Antibiotic Sensitivity, Tetra [3]: R (resistance to tetracycline (Tetra), MIC ≥ 1.0 μg/mL)
- Antibiotic Sensitivity, Tetra [4]: R (resistance to tetracycline (Tetra), MIC ≥ 1.0 μg/mL)
- Antibiotic Sensitivity, Tetra [5]: R (resistance to tetracycline (Tetra), MIC ≥ 1.0 μg/mL)
- Antibiotic Sensitivity, Tetra [6]: R (resistance to tetracycline (Tetra), MIC ≥ 1.0 μg/mL)
- Antibiotic Sensitivity, Tetra [7]: R (resistance to tetracycline (Tetra), MIC ≥ 1.0 μg/mL)
- Antibiotic Sensitivity, Tetra [8]: R (resistance to tetracycline (Tetra), MIC ≥ 1.0 μg/mL)
- Antibiotic Sensitivity, Tetra [9]: R (resistance to tetracycline (Tetra), MIC ≥ 1.0 μg/mL)
- Antibiotic Sensitivity, Tetra [10]: R (resistance to tetracycline (Tetra), MIC ≥ 1.0 μg/mL)
- Antibiotic Sensitivity, Tetra [11]: R (resistance to tetracycline (Tetra), MIC ≥ 1.0 μg/mL)
- Antibiotic Sensitivity, Tetra [12]: R (resistance to tetracycline (Tetra), MIC ≥ 1.0 μg/mL)
